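Five compound concentrations were applied to cells in 96-well plates for 48 hours; endpoints were derived by simple linear interpolation of the resulting dose-response curve. GI50 marks 50% less growth.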 Calls of active or inactive are those of the source. Rule as the data show it: active = GI50 up to about 1.1 µM and inactive = higher.
Legend:
Experiment in all cases: NCI anticancer screen, dose series, 48 h
SNB-75 = test system: SNB-75
RXF 393 = test system: RXF 393
SF-268 = test system: SF-268
NCI-H23 = test system: NCI-H23
MOLT-4 = test system: MOLT-4
EKVX = test system: EKVX
IGROV-1 = test system: IGROV-1
HCC 2998 = test system: HCC 2998
COLO 205 = test system: COLO 205
LOX IMVI = test system: LOX IMVI
HT-29 = test system: HT-29
MDA-MB-435 = test system: MDA-MB-435
SF-295 = test system: SF-295
786-0 = test system: 786-0
HL-60 = test system: HL-60
PC-3 = test system: PC-3
OVCAR-4 = test system: OVCAR-4
TK-10 = test system: TK-10
A549 = test system: A549
OVCAR-8 = test system: OVCAR-8
MCF7 = test system: MCF7
HOP-92 = test system: HOP-92
SK-MEL-2 = test system: SK-MEL-2
SK-MEL-28 = test system: SK-MEL-28
MDA-N = test system: MDA-N
HOP-62 = test system: HOP-62
SW-620 = test system: SW-620
HCT-15 = test system: HCT-15
CCRF-CEM = test system: CCRF-CEM
SK-MEL-5 = test system: SK-MEL-5
OVCAR-3 = test system: OVCAR-3
SNB-19 = test system: SNB-19
RPMI-8226 = test system: RPMI-8226
UACC-62 = test system: UACC-62
HCT-116 = test system: HCT-116
SF-539 = test system: SF-539
KM12 = test system: KM12
SN12C = test system: SN12C
SR = test system: SR
Malme-3M = test system: Malme-3M
SK-OV-3 = test system: SK-OV-3
T47D = test system: T47D
K562 = test system: K562
DU-145 = test system: DU-145
CAKI-1 = test system: CAKI-1
NCI-H460 = test system: NCI-H460
OVCAR-5 = test system: OVCAR-5
NCI-H226 = test system: NCI-H226
A498 = test system: A498
NCI/ADR-RES = test system: NCI/ADR-RES
Hs-578T = test system: Hs-578T
NCI-H522 = test system: NCI-H522
UO-31 = test system: UO-31
UACC-257 = test system: UACC-257
U-251 = test system: U-251
ACHN = test system: ACHN
MDA-MB-231 = test system: MDA-MB-231
BT-549 = test system: BT-549
M14 = test system: M14

Measured: GI50

Cn1c2ccccc2c(=O)c2ccc(Cl)cc21
> 10 µM: HCT-15
active: SNB-19 0.0676 µM
inactive: SNB-75 8.97 µM | RXF 393 > 10 µM | SF-268 > 10 µM | NCI-H23 > 10 µM | MOLT-4 > 10 µM | EKVX 1.38 µM | IGROV-1 > 10 µM | HCC 2998 > 10 µM | COLO 205 > 10 µM | LOX IMVI > 10 µM | HT-29 > 10 µM | MDA-MB-435 > 10 µM | SF-295 > 10 µM | 786-0 > 10 µM | HL-60 9.95 µM | PC-3 > 10 µM | OVCAR-4 > 10 µM | TK-10 7.5 µM | A549 6.01 µM | OVCAR-8 > 10 µM | MCF7 > 10 µM | HOP-92 > 10 µM | SK-MEL-2 > 10 µM | SK-MEL-28 > 10 µM | MDA-N > 10 µM | HOP-62 > 10 µM | SW-620 > 10 µM | CCRF-CEM > 10 µM | SK-MEL-5 > 10 µM | OVCAR-3 > 10 µM | RPMI-8226 > 10 µM | UACC-62 > 10 µM | HCT-116 > 10 µM | SF-539 2.51 µM | KM12 > 10 µM | SN12C > 10 µM | SR > 10 µM | Malme-3M > 10 µM | SK-OV-3 6.71 µM | T47D > 10 µM | K562 > 10 µM

CN(CCCNCc1ccccn1)Cc1ccccc1O
inactive: SNB-75 > 100 µM | RXF 393 16.7 µM | SF-268 57.9 µM | NCI-H23 14.4 µM | MOLT-4 13.7 µM | EKVX 33.4 µM | IGROV-1 20.2 µM | HCC 2998 25.1 µM | DU-145 40.1 µM | COLO 205 29 µM | CAKI-1 42.8 µM | NCI-H460 7.19 µM | LOX IMVI 23.1 µM | HT-29 22 µM | MDA-MB-435 44.4 µM | SF-295 20.4 µM | 786-0 52.7 µM | HL-60 2.74 µM | OVCAR-5 32 µM | PC-3 65.3 µM | OVCAR-4 31.8 µM | TK-10 7.21 µM | A549 37.1 µM | OVCAR-8 26.8 µM | MCF7 43 µM | HOP-92 42.9 µM | SK-MEL-2 35.2 µM | NCI-H226 15.4 µM | SK-MEL-28 > 100 µM | MDA-N 58.2 µM | HOP-62 12.4 µM | SW-620 > 100 µM | A498 > 100 µM | NCI/ADR-RES 16.3 µM | Hs-578T > 100 µM | CCRF-CEM 50.8 µM | SK-MEL-5 21 µM | NCI-H522 56.2 µM | OVCAR-3 24.9 µM | SNB-19 21.6 µM | RPMI-8226 36.3 µM | UO-31 3.73 µM | UACC-62 18.7 µM | UACC-257 24.3 µM | HCT-116 60.4 µM | U-251 96.8 µM | KM12 28.5 µM | ACHN 13.9 µM | MDA-MB-231 > 100 µM | SN12C 71.1 µM | Malme-3M 27.8 µM | SK-OV-3 45.2 µM | T47D 34 µM | K562 39.8 µM
6.4 µM: HCT-15

Clc1cc(Br)c2c3c(c(Br)cc(Cl)c13)C(Br)=C2Br
18.6 µM: HCT-15
inactive: SNB-75 13.8 µM | SF-268 22.5 µM | MOLT-4 19.8 µM | EKVX 28.6 µM | IGROV-1 16.7 µM | HCC 2998 18.3 µM | DU-145 28.4 µM | NCI-H460 40.7 µM | LOX IMVI 16.9 µM | HT-29 25.2 µM | MDA-MB-435 39.4 µM | SF-295 > 100 µM | 786-0 22.1 µM | HL-60 19.1 µM | OVCAR-5 44.2 µM | BT-549 38.7 µM | PC-3 26.7 µM | OVCAR-4 44.9 µM | TK-10 21.8 µM | A549 55.8 µM | OVCAR-8 31 µM | MCF7 34.8 µM | SK-MEL-2 29.9 µM | NCI-H226 39.4 µM | SK-MEL-28 > 100 µM | MDA-N 42.3 µM | HOP-62 64.3 µM | SW-620 34.2 µM | A498 > 100 µM | NCI/ADR-RES 22.8 µM | Hs-578T 33.1 µM | NCI-H522 17.2 µM | OVCAR-3 30.3 µM | SNB-19 > 100 µM | RPMI-8226 21.6 µM | UO-31 44.6 µM | UACC-62 23.2 µM | UACC-257 > 100 µM | HCT-116 21.2 µM | U-251 43.8 µM | SF-539 19 µM | KM12 45.8 µM | ACHN 19.7 µM | M14 28.2 µM | MDA-MB-231 28.1 µM | SN12C 19.5 µM | SR 27.9 µM | Malme-3M 27.6 µM | SK-OV-3 > 100 µM | K562 29 µM

O=C(Nc1ccccc1)N(C1=NCC(CI)S1)c1ccc(F)c(F)c1 (stereo unspecified)
inactive: SNB-75 12.6 µM | SF-268 21.3 µM | NCI-H23 29.2 µM | MOLT-4 19.5 µM | EKVX > 100 µM | IGROV-1 38.8 µM | HCC 2998 55.8 µM | DU-145 > 100 µM | COLO 205 56.1 µM | CAKI-1 24.1 µM | NCI-H460 35.2 µM | LOX IMVI 15.2 µM | HT-29 27 µM | SF-295 > 100 µM | 786-0 43.2 µM | HL-60 21.4 µM | OVCAR-5 > 100 µM | PC-3 25.4 µM | OVCAR-4 29.4 µM | TK-10 44 µM | A549 26.4 µM | OVCAR-8 47.8 µM | MCF7 22.4 µM | HOP-92 7.03 µM | SK-MEL-2 23.9 µM | SK-MEL-28 12.4 µM | MDA-N 24.6 µM | HOP-62 > 100 µM | SW-620 28.2 µM | A498 24.9 µM | NCI/ADR-RES 30.8 µM | Hs-578T 64 µM | CCRF-CEM 19.3 µM | SK-MEL-5 17.3 µM | OVCAR-3 28.3 µM | SNB-19 > 100 µM | RPMI-8226 21.2 µM | UO-31 44.7 µM | UACC-257 31 µM | HCT-116 29.1 µM | U-251 54.1 µM | SF-539 33.2 µM | KM12 32.6 µM | ACHN 49.4 µM | MDA-MB-231 24.8 µM | SN12C 81.5 µM | SR 23.8 µM | Malme-3M 55.7 µM | SK-OV-3 > 100 µM | T47D 18.3 µM | K562 27 µM
28.1 µM: HCT-15

— ChEMBL document CHEMBL1201862, “PubChem BioAssay data set” (2004)
